Experimental data reported in patent publication US20250345329A1, “HETEROARYL DERIVATIVE COMPOUND AND USES THEREOF” (VORONOI, INC., priority 2022, published 2025).

Columns and labels:
[1] = target: T1, human EGFR (d746-750/T790M/C797S) (Homo sapiens, UniProt P00533, C797S/DEL746-750/T790M); test: EGFR C797S enzyme inhibition activity (ADP-Glo kinase assay); format: biochemical; conditions: purified enzyme 3 ng, ATP 5 μM, 25° C., 1 hour, luminescence; read-out: EGFR DTC Enzyme IC50
T1 construct: human EGFR (d746-750/T790M/C797S) (668-end, SignalChem); purchased SignalChem
Outline: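 Kinase construct 668-end (3 ng) was incubated with 5 μM ATP and 0.2 μg substrate in Tris pH 7.4 buffer for 1 h at 25° C. ADP-Glo luminescence was read over 12 final compound concentrations from 10 μM down to 0. IC50 was taken as 50% inhibition relative to the solvent control.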

[2] = tested on: Ba/F3 expressing EGFR Del19/T790M/C797S mutations; test: Inhibitory activity on proliferation of Ba/F3 cell overexpressing EGFR C797S (Cell Titer-Glo); format: cell-based; conditions: Mus musculus, BaF3; 72 hours treatment, cell growth rate vs control; read-out: Ba/F3 (EGFR DTC) GI50
Outline: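 Ba/F3 cells with EGFR Del19/T790M/C797S in RPMI-1640 + 10% FBS were seeded (3000/well) 24 h before 72 h compound exposure at 37 °C. Compounds were tested in a 12-point 3-fold series, final […]–5 μM. CellTiter-Glo luminescence gave growth % versus control, from which GI50 was derived.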

T1 sequence (P00533 with tags, fused parts or gaps DEL746-750/T790M/C797S): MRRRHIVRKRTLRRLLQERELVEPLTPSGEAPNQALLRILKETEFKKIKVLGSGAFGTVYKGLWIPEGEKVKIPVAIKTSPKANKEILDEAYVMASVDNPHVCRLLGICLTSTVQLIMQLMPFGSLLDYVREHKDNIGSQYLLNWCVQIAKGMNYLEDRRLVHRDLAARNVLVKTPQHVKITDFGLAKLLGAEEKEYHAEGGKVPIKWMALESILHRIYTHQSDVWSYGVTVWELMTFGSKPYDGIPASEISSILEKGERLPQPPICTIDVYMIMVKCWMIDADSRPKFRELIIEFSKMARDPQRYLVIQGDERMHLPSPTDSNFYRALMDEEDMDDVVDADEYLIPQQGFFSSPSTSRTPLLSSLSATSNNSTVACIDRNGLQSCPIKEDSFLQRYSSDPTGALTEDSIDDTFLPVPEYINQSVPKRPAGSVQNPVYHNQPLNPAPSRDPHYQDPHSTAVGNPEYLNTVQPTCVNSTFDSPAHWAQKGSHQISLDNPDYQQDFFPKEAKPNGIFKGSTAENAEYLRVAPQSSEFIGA

| Compound | IC50 [1] [nM] | GI50 [2] [nM] |
| --- | --- | --- |
| CC(C)Nc1cc(Nc2ccnc(-c3cnn(S(=O)(=O)C4CC4)c3)n2)ncc1C(=O)NC(CN(C)C)c1ccccc1 (stereo not shown) [Example 70, 6-((2-(1-(cyclopropylsulfonyl)-1H-pyrazol-4-yl)pyrimidin-4-yl)amino)-N-(2-(dimethylamino)-1-phenylethyl)-4-(isopropylamino)nico-tinamide] | < 50 | 500 to 5000 |
| CC(C)Nc1cc(Nc2ccnc(-c3cnn(S(=O)(=O)C4CC4)c3)n2)ncc1C(=O)N[C@@H](C(C)C)C(F)(F)F [Example 79, (S)-6-((2-(1-(cyclopropylsulfonyl)-1H-pyrazol-4-yl)pyrimidin-4-yl)amino)-4-(isopropylamino)-N-(1,1,1-trifluoro-3-methylbutan-2-yl)nicotinamide] | 50 to 500 | 500 to 5000 |
| CC(C)Nc1cc(Nc2ccnc(-c3cnn(S(=O)(=O)C4CC4)c3)n2)ncc1C(=O)Nc1cc(N2CCN(C)CC2)cc(C(C)(C)C#N)c1 [Example 40, N-(3-(2-cyanopropan-2-yl)-5-(4-methylpiperazin-1-yl)phenyl)-6-((2-(1-(cyclopropylsulfonyl)-1H-pyrazol-4-yl)pyrimidin-4-yl)amino)-4-(isopropylamino)nico-tinamide] | 50 to 500 | 500 to 5000 |
| CC(C)Nc1cc(Nc2ccnc(-c3cnn(S(=O)(=O)C4CC4)c3)n2)ncc1C(=O)Nc1cnn(S(=O)(=O)C2CC2)c1 [Example 32, N-(1-(cyclopropylsulfonyl)-1H-pyrazol-4-yl)-6-((2-(1-(cyclopropylsulfonyl)-1H-pyrazol-4-yL)pyrimidin-4-yl)amino)-4-(isopropylamino)nico-tinamide] | 50 to 500 | 500 to 5000 |
| CC(C)Nc1cc(Nc2ccnc(-c3cnn(S(=O)(=O)C4CC4)c3)n2)ncc1C(=O)Nc1cccc(N2CCN(C)CC2)c1 [Example 39, 6-((2-(1-(cyclopropylsulfonyl)-1H-pyrazol-4-yl)pyrimidin-4-yl)amino)-4-(isopropylamino)-N-(3-(4-methylpiperazin-1-yl)phenyl)nicotinamide] | < 50 | 500 to 5000 |
| CC(C)Nc1cc(Nc2ccnc(-c3cnn(S(=O)(=O)C4CC4)c3)n2)ncc1C(=O)N1CC(C#N)C1 [Example 9, 1-(6-((2-(1-(cyclopropylsulfonyl)-1H-pyrazol-4-yl)pyrimidin-4-yl)amino)-4-(isopropylamino)nico-tinoyl)azetidine-3-carbonitrile] | < 50 | 500 to 5000 |
| CC(C)Nc1cc(Nc2ccnc(-c3cnn(S(=O)(=O)C4CC4)c3)n2)ncc1C(=O)NC(CCN(C)C)c1ccccc1 (stereo not shown) [Example 53, 6-((2-(1-(cyclopropylsulfonyl)-1H-pyrazol-4-yl)pyrimidin-4-yl)amino)-N-(3-(dimethylamino)-1-phenylpropyl)-4-(isopropylamino)nico-tinamide] | < 50 | 500 to 5000 |
| CC(C)Nc1cc(Nc2ccnc(-c3cnn(S(=O)(=O)C4CC4)c3)n2)ncc1C(=O)NCC1CCN(C)CC1 [Example 51, 6-((2-(1-(cyclopropylsulfonyl)-1H-pyrazol-4-yl)pyrimidin-4-yl)amino)-4-(isopropylamino)-N-((1-methylpiperidin-4-yl)methyl)nicotinamide] | < 50 | 500 to 5000 |
| CC(C)Nc1cc(Nc2ccnc(-c3cnn(S(=O)(=O)C4CC4)c3)n2)ncc1C(=O)N1CC2(C1)CN(S(C)(=O)=O)C2 [Example 66, (6-((2-(1-(cyclopropylsulfonyl)-1H-pyrazol-4-yl)pyrimidin-4-yl)amino)-4-(isopropylamino)pyri-din-3-yl)(6-(methylsulfonyl)-2,6-diazaspiro[3.3]heptan-2-yl)methanone] | < 50 | 500 to 5000 |
| CC(C)Nc1cc(Nc2ccnc(-c3cnn(S(=O)(=O)C4CC4)c3)n2)ncc1C(=O)NCCS(=O)(=O)C(C)C [Example 74, 6-((2-(1-(cyclopropylsulfonyl)-1H-pyrazol-4-yl)pyrimidin-4-yl)amino)-4-(isopropylamino)-N-(2-(isopropylsulfonyl)eth-yl)nicotinamide] | < 50 | 500 to 5000 |
| CC(C)Nc1cc(Nc2ccnc(-c3cnn(S(=O)(=O)C4CC4)c3)n2)ncc1C(=O)NCC#N [Example 72, N-(cyanomethyl)-6-((2-(1-(cyclopropylsulfonyl)-1H-pyrazol-4-yl)pyrimidin-4-yl)amino)-4-(isoporpylamino)nico-tinamide] | < 50 | < 500 |
| CC(C)Nc1cc(Nc2ccnc(-c3cnn(S(=O)(=O)C4CC4)c3)n2)ncc1C(=O)NCC1CCCO1 (stereo not shown) [Example 62, 6-((2-(1-(cyclopropylsulfonyl)-1H-pyrazol-4-yl)pyrimidin-4-yl)amino)-4-(isopropylamino)-N-((tetrahydrofuran-2-yl)methyl)nicotin-amide] | < 50 | < 500 |
| CC1CCCOc2c(cnn2C)-c2nccc(n2)Nc2cc(c(C(=O)NCCCC(F)(F)F)cn2)N1 (stereo not shown) [Example 116, 1^1,6-dimethyl-N-(4,4,4-trifluorobutyl)-1^1H-10-oxa-3,5-diaza-2(2,4)-pyrimidina-4(2,4)-pyridina-1(4,5)-pyrazolacyclo-decaphane-4^5-carboxamide] | < 50 | < 500 |
| COC(=O)CCNC(=O)c1cnc(Nc2ccnc(-c3cnn(S(=O)(=O)C4CC4)c3)n2)cc1NC(C)C [Example 50, methyl 3-(6-((2-(1-(cyclopropylsulfonyl)-1H-pyrazol-4-yl)pyrimidin-4-yl)amino)-4-(isopropylamino)nico-tinamido)propanoate] | < 50 | 500 to 5000 |
| C[C@H]1CCOc2c(cnn2C)-c2nccc(n2)Nc2cc(c(C(=O)NC3CCCC(C(F)(F)F)C3)cn2)N1 (stereo partly drawn) [Example 119, (6S)-1^1,6-dimethyl-N-(3-(trifluoroemthyl)cy-clohexyl)-1^1H-9-oxa-3,5-diaza-2(2,4)-pyrimidina-4(2,4)-pyridina-1(4,5)-pyrazolacyclo-nonaphane-4^5-carboxamide] | < 50 | < 500 |
| COC(=O)CCNC(=O)c1cnc(Nc2ccnc(N3CC[C@H](OC)[C@H](F)C3)n2)cc1NC(C)C (relative stereo) [Example 97, methyl 3-(6-((2-(cis-3-fluoro-4-methoxypiperidin-1-yl)pyrimidin-4-yl)amino)-4-(isopropylamino)nico-tinamido)propanoate] | < 50 | 500 to 5000 |
| CC(C)Nc1cc(Nc2ccnc(-c3cnn(S(=O)(=O)C4CC4)c3)n2)ncc1C(=O)NC1CN(C(=O)OC(C)(C)C)C1 [Example 46, tert-butyl 3-(6-((2-(1-(cyclopropylsulfonyl)-1H-pyrazol-4-yl)pyrimidin-4-yl)amino)-4-(isopropylamino)nico-tinamido)azetidine-1-carboxylate] | 50 to 500 | 500 to 5000 |
| CC(C)Nc1cc(Nc2ccnc(-c3cnn(S(=O)(=O)C4CC4)c3)n2)ncc1C(=O)NCCN1CCCC1 [Example 68, 6-((2-(1-(cyclopropylsulfonyl)-1H-pyrazol-4-yl)pyrimidin-4-yl)amino)-4-(isopropylamino)-N-(2-(pyrrolidin-1-yl)ethyl)nicotinamide] | < 50 | 500 to 5000 |
| CC(C)Nc1cc(Nc2ccnc(-c3cnn(S(=O)(=O)C4CC4)c3)n2)ncc1C(=O)NC1CCN(C(=O)OC(C)(C)C)C1 (stereo not shown) [Example 47, tert-butyl 3-(6-((2-(1-(cyclopropylsulfonyl)-1H-pyrazol-4-yl)pyrimidin-4-yl)amino)-4-(isopropylamino)nico-tinamido)pyrrolidine-1-carboxylate] | 50 to 500 | 500 to 5000 |
| C[C@H]1CCOc2c(cnn2C)-c2nccc(n2)Nc2cc(c(C(=O)NC(CCN(C)C)c3ccccc3)cn2)N1 (stereo partly drawn) [Example 120, (6S)-N-(3-(dimethylamino)-1-phenylpropyl)-1^1,6-dimethyl-1^1H-9-oxa-3,5-diaza-2(2,4)-pyrimidina-4(2,4)-pyridina-1(4,5)-pyrazolacyclo-nonaphane-4^5-carboxamide] | < 50 | 500 to 5000 |
